Experimental findings from the supplement of paper PMC10307832 are described below.

Assay in all cases: relative viability (nuclei count vs DMSO), 5 days (fraction); higher = more cells survive
Compound in the experiment “Pictilisib + OSI-027”: CS(=O)(=O)N1CCN(Cc2cc3nc(-c4cccc5[nH]ncc45)nc(N4CCOCC4)c3s2)CC1 [Pictilisib] + COc1cccc2cc(-c3nc([C@H]4CC[C@H](C(=O)O)CC4)n4ncnc(N)c34)[nH]c12 [OSI-027] (partner 0.5 µM)
Summed up:
(§1)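 Dosing by pin tool came one day after lung cancer cell lines were seeded in 1536-well plates, using either one drug or a fixed anchor-drug dose plus five library-drug doses (not always all listed) in √10 steps. After 5 days, nuclei were counted on 4× images. Relative viability is treated-well nuclei count divided by vehicle-well nuclei count, and values are medians of duplicate plates.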

Compound in the experiment “MK-2206 + Pictilisib”: NC1(c2ccc(-c3nc4ccn5c(=O)[nH]nc5c4cc3-c3ccccc3)cc2)CCC1 [MK-2206] + CS(=O)(=O)N1CCN(Cc2cc3nc(-c4cccc5[nH]ncc45)nc(N4CCOCC4)c3s2)CC1 [Pictilisib] (partner 1 µM)
Summed up: as §1

Compound in the experiment “MK-2206 + Navitoclax”: NC1(c2ccc(-c3nc4ccn5c(=O)[nH]nc5c4cc3-c3ccccc3)cc2)CCC1 [MK-2206] + CC1(C)CCC(c2ccc(Cl)cc2)=C(CN2CCN(c3ccc(C(=O)NS(=O)(=O)c4ccc(N[C@H](CCN5CCOCC5)CSc5ccccc5)c(S(=O)(=O)C(F)(F)F)c4)cc3)CC2)C1 [Navitoclax] (partner 0.5 µM)
Summed up:
as §1

Compound in the experiment “MK-2206 + Linsitinib”: NC1(c2ccc(-c3nc4ccn5c(=O)[nH]nc5c4cc3-c3ccccc3)cc2)CCC1 [MK-2206] + C[C@]1(O)C[C@@H](c2nc(-c3ccc4ccc(-c5ccccc5)nc4c3)c3c(N)nccn32)C1 [Linsitinib] (partner 1 µM)
Summed up:
as §1

Compound in the experiment “Pictilisib + Bortezomib”: CS(=O)(=O)N1CCN(Cc2cc3nc(-c4cccc5[nH]ncc45)nc(N4CCOCC4)c3s2)CC1 [Pictilisib] + CC(C)C[C@H](NC(=O)[C@H](Cc1ccccc1)NC(=O)c1cnccn1)B(O)O [Bortezomib] (partner 0.002 µM)
Put shortly:
as §1

As to NCI-H1437, the relative viability with Pictilisib + OSI-027 (first compound 0.02 µM) turned out to be 0.855; in the experiment with Pictilisib + OSI-027 (first compound 0.06325 µM), 0.685; with Pictilisib + OSI-027 (first compound 0.6325 µM), 0.619; in the experiment with Pictilisib + OSI-027 (first compound 2 µM) it was 0.289; with MK-2206 + Pictilisib (first compound 0.01 µM) it was 0.472; with MK-2206 + Pictilisib (first compound 0.03162 µM) it was 0.399. Moreover, the relative viability was 0.366 with MK-2206 + Pictilisib (first compound 0.3162 µM); 0.263 in the experiment with MK-2206 + Pictilisib (first compound 1 µM); 1.07 with MK-2206 + Navitoclax (first compound 0.01 µM); 1.16 in the experiment with MK-2206 + Navitoclax (first compound 0.03162 µM); 1.18 with MK-2206 + Navitoclax (first compound 0.3162 µM); 1.09 in the experiment with MK-2206 + Navitoclax (first compound 1 µM). Further, the relative viability with MK-2206 + Linsitinib (first compound 0.01 µM) is 0.99; with MK-2206 + Linsitinib (first compound 0.03162 µM) it was 1.08; in the experiment with MK-2206 + Linsitinib (first compound 0.3162 µM) it was 0.948; in the experiment with MK-2206 + Linsitinib (first compound 1 µM), 0.951; with Pictilisib + Bortezomib (first compound 0.02 µM) it was 0.582; with Pictilisib + Bortezomib (first compound 0.06325 µM), 0.488. Besides, the relative viability with Pictilisib + Bortezomib (first compound 0.6325 µM) amounted to 0.532; in the experiment with Pictilisib + Bortezomib (first compound 2 µM) it was 0.231.
Regarding BEN, the relative viability with Pictilisib + OSI-027 (first compound 0.02 µM) stood at 0.309; with Pictilisib + OSI-027 (first compound 0.06325 µM), 0.293; in the experiment with Pictilisib + OSI-027 (first compound 0.6325 µM) it was 0.286; in the experiment with Pictilisib + OSI-027 (first compound 2 µM), 0.273; in the experiment with MK-2206 + Pictilisib (first compound 0.01 µM), 0.573; with MK-2206 + Pictilisib (first compound 0.03162 µM), 0.621. Also, the relative viability was 0.63 with MK-2206 + Pictilisib (first compound 0.3162 µM); 0.571 with MK-2206 + Pictilisib (first compound 1 µM); 0.069 with MK-2206 + Navitoclax (first compound 0.01 µM); 0.0836 with MK-2206 + Navitoclax (first compound 0.03162 µM); 0.0745 with MK-2206 + Navitoclax (first compound 0.3162 µM); 0.0466 in the experiment with MK-2206 + Navitoclax (first compound 1 µM). The relative viability in the experiment with MK-2206 + Linsitinib (first compound 0.01 µM) was 0.924; with MK-2206 + Linsitinib (first compound 0.03162 µM), 1.01; with MK-2206 + Linsitinib (first compound 0.3162 µM) it was 1.04; in the experiment with MK-2206 + Linsitinib (first compound 1 µM), 1.03; with Pictilisib + Bortezomib (first compound 0.02 µM), 0.811; with Pictilisib + Bortezomib (first compound 0.06325 µM), 0.941. The relative viability with Pictilisib + Bortezomib (first compound 0.6325 µM) was 0.762; in the experiment with Pictilisib + Bortezomib (first compound 2 µM), 0.489.
With LXF-289, the relative viability in the experiment with Pictilisib + OSI-027 (first compound 0.02 µM) stood at 0.817; in the experiment with Pictilisib + OSI-027 (first compound 0.06325 µM) it was 0.827; with Pictilisib + OSI-027 (first compound 0.6325 µM), 0.566; in the experiment with Pictilisib + OSI-027 (first compound 2 µM) it was 0.397; in the experiment with MK-2206 + Pictilisib (first compound 0.01 µM) it was 0.755; with MK-2206 + Pictilisib (first compound 0.03162 µM), 0.821. Further, the relative viability worked out at 0.748 in the experiment with MK-2206 + Pictilisib (first compound 0.3162 µM); 0.705 with MK-2206 + Pictilisib (first compound 1 µM); 0.914 with MK-2206 + Navitoclax (first compound 0.01 µM); 1.01 in the experiment with MK-2206 + Navitoclax (first compound 0.03162 µM); 1.01 with MK-2206 + Navitoclax (first compound 0.3162 µM); 0.972 with MK-2206 + Navitoclax (first compound 1 µM). In addition, the relative viability with MK-2206 + Linsitinib (first compound 0.01 µM) amounted to 0.954; with MK-2206 + Linsitinib (first compound 0.03162 µM), 0.988; with MK-2206 + Linsitinib (first compound 0.3162 µM), 0.966; with MK-2206 + Linsitinib (first compound 1 µM) it was 0.99; with Pictilisib + Bortezomib (first compound 0.02 µM), 1.04; with Pictilisib + Bortezomib (first compound 0.06325 µM), 1.05. Further, the relative viability is 0.993 in the experiment with Pictilisib + Bortezomib (first compound 0.6325 µM) and 0.819 with Pictilisib + Bortezomib (first compound 2 µM).
On to NCI-H1993, for which the relative viability is 0.514 with Pictilisib + OSI-027 (first compound 0.02 µM); 0.47 in the experiment with Pictilisib + OSI-027 (first compound 0.06325 µM); 0.592 with Pictilisib + OSI-027 (first compound 0.6325 µM); 0.646 with Pictilisib + OSI-027 (first compound 2 µM); 0.85 in the experiment with MK-2206 + Pictilisib (first compound 0.01 µM); 0.742 with MK-2206 + Pictilisib (first compound 0.03162 µM). The relative viability was found to be 0.742 with MK-2206 + Pictilisib (first compound 0.3162 µM); 0.86 with MK-2206 + Pictilisib (first compound 1 µM); 0.901 in the experiment with MK-2206 + Navitoclax (first compound 0.01 µM); 0.801 in the experiment with MK-2206 + Navitoclax (first compound 0.03162 µM); 0.678 with MK-2206 + Navitoclax (first compound 0.3162 µM); 0.649 with MK-2206 + Navitoclax (first compound 1 µM). Also, the relative viability in the experiment with MK-2206 + Linsitinib (first compound 0.01 µM) was determined as 0.681; in the experiment with MK-2206 + Linsitinib (first compound 0.03162 µM), 0.811; with MK-2206 + Linsitinib (first compound 0.3162 µM), 0.704; with MK-2206 + Linsitinib (first compound 1 µM) it was 0.71; with Pictilisib + Bortezomib (first compound 0.02 µM), 0.984; in the experiment with Pictilisib + Bortezomib (first compound 0.06325 µM) it was 1.04. The relative viability was determined as 0.601 with Pictilisib + Bortezomib (first compound 0.6325 µM) and 0.448 with Pictilisib + Bortezomib (first compound 2 µM).
For the cell line NCI-H727, the relative viability with Pictilisib + OSI-027 (first compound 0.02 µM) was 0.741; with Pictilisib + OSI-027 (first compound 0.06325 µM), 0.649; with Pictilisib + OSI-027 (first compound 0.6325 µM), 0.548; in the experiment with Pictilisib + OSI-027 (first compound 2 µM) it was 0.333; in the experiment with MK-2206 + Pictilisib (first compound 0.01 µM), 0.47; with MK-2206 + Pictilisib (first compound 0.03162 µM), 0.413. Moreover, the relative viability came to 0.36 with MK-2206 + Pictilisib (first compound 0.3162 µM); 0.254 in the experiment with MK-2206 + Pictilisib (first compound 1 µM); 0.424 with MK-2206 + Navitoclax (first compound 0.01 µM); 0.367 in the experiment with MK-2206 + Navitoclax (first compound 0.03162 µM); 0.212 in the experiment with MK-2206 + Navitoclax (first compound 0.3162 µM); 0.314 in the experiment with MK-2206 + Navitoclax (first compound 1 µM). Also, the relative viability with MK-2206 + Linsitinib (first compound 0.01 µM) is 0.308; with MK-2206 + Linsitinib (first compound 0.03162 µM), 0.313; with MK-2206 + Linsitinib (first compound 0.3162 µM), 0.244; in the experiment with MK-2206 + Linsitinib (first compound 1 µM), 0.27; in the experiment with Pictilisib + Bortezomib (first compound 0.02 µM) it was 0.992; with Pictilisib + Bortezomib (first compound 0.06325 µM), 0.941. Further, the results for the relative viability in the experiment with Pictilisib + Bortezomib (first compound 0.6325 µM) and with Pictilisib + Bortezomib (first compound 2 µM) were 0.784 and 0.609, respectively.
LOU-NH91: the relative viability with Pictilisib + OSI-027 (first compound 0.02 µM) was found to be 0.747; in the experiment with Pictilisib + OSI-027 (first compound 0.06325 µM), 0.757; in the experiment with Pictilisib + OSI-027 (first compound 0.6325 µM), 0.666; with Pictilisib + OSI-027 (first compound 2 µM), 0.464; with MK-2206 + Pictilisib (first compound 0.01 µM), 0.551; with MK-2206 + Pictilisib (first compound 0.03162 µM) it was 0.479. In addition, the relative viability with MK-2206 + Pictilisib (first compound 0.3162 µM) was 0.461; in the experiment with MK-2206 + Pictilisib (first compound 1 µM) it was 0.474; with MK-2206 + Navitoclax (first compound 0.01 µM), 0.702; in the experiment with MK-2206 + Navitoclax (first compound 0.03162 µM), 0.745; with MK-2206 + Navitoclax (first compound 0.3162 µM), 0.749; with MK-2206 + Navitoclax (first compound 1 µM), 0.621. Further, the relative viability came to 0.939 with MK-2206 + Linsitinib (first compound 0.01 µM); 1.01 with MK-2206 + Linsitinib (first compound 0.03162 µM); 0.941 in the experiment with MK-2206 + Linsitinib (first compound 0.3162 µM); 0.844 with MK-2206 + Linsitinib (first compound 1 µM); 0.456 with Pictilisib + Bortezomib (first compound 0.02 µM); 0.455 with Pictilisib + Bortezomib (first compound 0.06325 µM). In addition, the relative viability is 0.502 with Pictilisib + Bortezomib (first compound 0.6325 µM) and 0.401 with Pictilisib + Bortezomib (first compound 2 µM).
For the cell line NCI-H1975, the relative viability with Pictilisib + OSI-027 (first compound 0.02 µM) stood at 0.867; in the experiment with Pictilisib + OSI-027 (first compound 0.06325 µM) it was 0.574; with Pictilisib + OSI-027 (first compound 0.6325 µM), 0.234; with Pictilisib + OSI-027 (first compound 2 µM), 0.212; in the experiment with MK-2206 + Pictilisib (first compound 0.01 µM), 0.267; with MK-2206 + Pictilisib (first compound 0.03162 µM), 0.259. The relative viability with MK-2206 + Pictilisib (first compound 0.3162 µM) is 0.24; with MK-2206 + Pictilisib (first compound 1 µM), 0.232; with MK-2206 + Navitoclax (first compound 0.01 µM) it was 1.05; with MK-2206 + Navitoclax (first compound 0.03162 µM), 0.969; with MK-2206 + Navitoclax (first compound 0.3162 µM), 0.938; in the experiment with MK-2206 + Navitoclax (first compound 1 µM) it was 0.787. Also, the relative viability in the experiment with MK-2206 + Linsitinib (first compound 0.01 µM) turned out to be 1.02; with MK-2206 + Linsitinib (first compound 0.03162 µM) it was 0.81; in the experiment with MK-2206 + Linsitinib (first compound 0.3162 µM), 0.679; with MK-2206 + Linsitinib (first compound 1 µM) it was 0.72; in the experiment with Pictilisib + Bortezomib (first compound 0.02 µM) it was 0.358; with Pictilisib + Bortezomib (first compound 0.06325 µM), 0.443. Besides, the relative viability with Pictilisib + Bortezomib (first compound 0.6325 µM) came to 0.284; in the experiment with Pictilisib + Bortezomib (first compound 2 µM) it was 0.239.
